The source made the active and inactive calls. The calls are words filed in the database; no cut-off is given here.
Legend:
[1] = tested on: Saccharomyces cerevisiae; assay: Inhibition of Saccharomyces cerevisiae alpha-glucosidase
[2] = biological target: T1, Beta-hexosaminidase (Vibrio cholerae serotype O1 (strain ATCC 39315 / El Tor Inaba N16961)) (UniProt Q9KU37); assay: Inhibition of Vibrio cholerae glycoside hydrolase NagZ
T1 sequence (whole entry): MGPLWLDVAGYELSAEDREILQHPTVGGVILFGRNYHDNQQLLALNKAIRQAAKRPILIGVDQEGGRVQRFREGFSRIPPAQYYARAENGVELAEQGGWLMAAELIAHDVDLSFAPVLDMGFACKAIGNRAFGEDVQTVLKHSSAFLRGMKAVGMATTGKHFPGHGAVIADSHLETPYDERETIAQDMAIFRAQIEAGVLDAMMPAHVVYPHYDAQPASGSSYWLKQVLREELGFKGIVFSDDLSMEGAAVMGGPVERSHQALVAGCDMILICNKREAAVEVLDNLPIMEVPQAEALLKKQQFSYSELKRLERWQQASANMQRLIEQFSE

[3] = biological target: Beta-galactosidase (Kluyveromyces lactis) (UniProt P00723); assay: Inhibition of Kluyveromyces lactis glycoside hydrolase beta-galactosidase
Sequence of Beta-galactosidase (Kluyveromyces lactis) (P00723 whole entry): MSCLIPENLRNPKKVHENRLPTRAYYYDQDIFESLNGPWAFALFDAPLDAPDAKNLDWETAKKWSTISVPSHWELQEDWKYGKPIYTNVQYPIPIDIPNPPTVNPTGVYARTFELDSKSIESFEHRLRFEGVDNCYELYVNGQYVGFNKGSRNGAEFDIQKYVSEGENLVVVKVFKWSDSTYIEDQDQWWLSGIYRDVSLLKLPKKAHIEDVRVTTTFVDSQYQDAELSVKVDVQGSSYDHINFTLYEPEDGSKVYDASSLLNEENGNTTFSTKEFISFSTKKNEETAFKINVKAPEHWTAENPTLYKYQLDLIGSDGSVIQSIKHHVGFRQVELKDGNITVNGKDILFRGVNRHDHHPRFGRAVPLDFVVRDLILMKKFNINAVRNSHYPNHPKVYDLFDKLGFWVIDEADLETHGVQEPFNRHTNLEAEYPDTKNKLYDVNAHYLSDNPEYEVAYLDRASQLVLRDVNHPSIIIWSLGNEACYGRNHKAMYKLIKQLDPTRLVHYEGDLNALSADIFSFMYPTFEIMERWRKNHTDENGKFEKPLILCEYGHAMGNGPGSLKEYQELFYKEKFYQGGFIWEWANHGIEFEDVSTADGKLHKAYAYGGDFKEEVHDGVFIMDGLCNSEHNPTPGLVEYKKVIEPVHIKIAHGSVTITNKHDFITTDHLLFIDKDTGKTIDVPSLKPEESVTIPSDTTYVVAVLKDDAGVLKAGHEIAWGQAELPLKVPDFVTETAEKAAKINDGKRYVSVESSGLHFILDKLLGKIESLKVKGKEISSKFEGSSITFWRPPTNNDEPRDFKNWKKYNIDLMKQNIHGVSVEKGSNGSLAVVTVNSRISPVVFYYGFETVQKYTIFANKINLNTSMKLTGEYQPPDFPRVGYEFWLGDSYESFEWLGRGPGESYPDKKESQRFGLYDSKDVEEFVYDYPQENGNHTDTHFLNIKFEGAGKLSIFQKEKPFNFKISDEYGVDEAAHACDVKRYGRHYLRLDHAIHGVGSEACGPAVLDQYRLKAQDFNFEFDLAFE

[4] = Inhibition of human lysosomal beta-hexosaminidase
[5] = tested on: Rattus norvegicus; assay: Increase in O-GlcNAc level in Sprague-Dawley rat brain pyramidal cell layer of CA1 region at 200 mg/kg, po by […]; type: functional, organism-based; design: dose 200 mg/kg
[6] = tested on: Canavalia ensiformis; assay: Inhibition of Canavalia ensiformis alpha-mannosidase
[7] = biological target: T2, Alpha-galactosidase (Thermotoga maritima) (UniProt G4FEF4); assay: Inhibition of Thermotoga maritima alpha-galactosidase
T2 sequence (whole entry): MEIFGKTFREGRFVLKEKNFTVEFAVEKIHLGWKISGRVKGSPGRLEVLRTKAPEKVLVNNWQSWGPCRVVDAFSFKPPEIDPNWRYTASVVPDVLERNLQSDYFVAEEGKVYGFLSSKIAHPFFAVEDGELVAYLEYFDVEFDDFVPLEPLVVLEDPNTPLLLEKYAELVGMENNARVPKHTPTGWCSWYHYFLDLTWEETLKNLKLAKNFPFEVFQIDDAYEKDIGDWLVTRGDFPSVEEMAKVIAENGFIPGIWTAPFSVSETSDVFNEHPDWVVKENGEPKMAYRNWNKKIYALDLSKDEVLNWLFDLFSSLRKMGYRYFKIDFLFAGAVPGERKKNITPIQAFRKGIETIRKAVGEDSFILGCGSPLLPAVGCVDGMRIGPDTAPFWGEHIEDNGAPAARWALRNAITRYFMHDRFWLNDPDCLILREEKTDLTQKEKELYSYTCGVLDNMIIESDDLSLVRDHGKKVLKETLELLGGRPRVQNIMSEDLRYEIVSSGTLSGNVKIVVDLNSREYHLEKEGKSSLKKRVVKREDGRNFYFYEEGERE

[8] = tested on: PC-12; assay: Induction of O-GlcNAc level in NGF-differentiated rat PC12 cells after 24 hrs by Western blot analysis; type: functional, cell-based
[9] = tested on: PC-12; assay: Induction of O-GlcNAc level in NGF-differentiated rat PC12 cells after 24 hrs by densitometric analysis; type: functional, cell-based; conditions: PC-12, 24 h
[10] = tested on: PC-12; assay: Induction of O-GlcNAc level in NGF-differentiated rat PC12 cells at >25 uM by Western blot analysis; type: functional, cell-based; conditions: TDE = time-dependent effect
[11] = tested on: Rattus norvegicus; assay: Induction of O-GlcNAc level in rat at 50 mg/kg, iv by Western blot analysis; type: functional, organism-based; design: dose 50 mg/kg; conditions: TDE = time-dependent effect
[12] = Inhibition of beta-hexosaminidase
[13] = tested on: PC-12; assay: Reduction in tau protein phosphorylation at Ser396 position in NGF-differentiated rat PC12 cells after 4 hrs by Western blot analysis relative to control; type: functional, cell-based
[14] = tested on: Rattus norvegicus; assay: Reduction in tau protein phosphorylation at Ser396 in Sprague-Dawley rat brain CA1 region at 200 mg/kg, po by […]; type: functional, organism-based; design: dose 200 mg/kg
[15] = tested on: PC-12; assay: […] in pSer396 immunoreactivity in NGF-differentiated rat PC12 cells after 4 hrs by Western blot analysis; type: functional, cell-based; conditions: TDE = time-dependent effect
[16] = tested on: Rattus norvegicus; assay: Increase in O-GlcNAc immunoreactivity in Sprague-Dawley rat brain CA1 region at 200 mg/kg, po by […]; type: functional, organism-based; design: dose 200 mg/kg
[17] = tested on: Rattus norvegicus; assay: Reduction in tau protein phosphorylation at Thr231 in Sprague-Dawley rat brain CA1 region at 200 mg/kg, po by […]; type: functional, organism-based; design: dose 200 mg/kg
[18] = tested on: Rattus norvegicus; assay: Increase in O-GlcNAc immunoreactivity in Sprague-Dawley rat brain nucleus at 200 mg/kg, po by […]; type: functional, organism-based; design: dose 200 mg/kg
[19] = tested on: Rattus norvegicus; assay: Increase in O-GlcNAc immunoreactivity in Sprague-Dawley rat brain perikaryon at 200 mg/kg, po by […]; type: functional, organism-based; design: dose 200 mg/kg
[20] = tested on: Rattus norvegicus; assay: Decrease in pSer396 immunoreactivity in Sprague-Dawley rat brain epitops of CA1 region at 200 mg/kg, po by […]; type: functional, organism-based; design: dose 200 mg/kg
[21] = tested on: Rattus norvegicus; assay: Decrease in pThr231 immunoreactivity in Sprague-Dawley rat brain epitops of CA1 region at 200 mg/kg, po by […]; type: functional, organism-based; design: dose 200 mg/kg
[22] = tested on: Rattus norvegicus; assay: Decrease in pSer396 immunoreactivity in Sprague-Dawley rat brain pyramidal cell layer of CA1 region at 200 mg/kg, po by […]; type: functional, organism-based; design: dose 200 mg/kg
[23] = tested on: Rattus norvegicus; assay: Decrease in pThr231 immunoreactivity in Sprague-Dawley rat brain pyramidal cell layer of CA1 region at 200 mg/kg, po by […]; type: functional, organism-based; design: dose 200 mg/kg
[24] = biological target: T3, Protein O-GlcNAcase (Homo sapiens, UniProt O60502); assay: Inhibition of human O-GlcNAcase
T3 sequence (O60502 whole entry): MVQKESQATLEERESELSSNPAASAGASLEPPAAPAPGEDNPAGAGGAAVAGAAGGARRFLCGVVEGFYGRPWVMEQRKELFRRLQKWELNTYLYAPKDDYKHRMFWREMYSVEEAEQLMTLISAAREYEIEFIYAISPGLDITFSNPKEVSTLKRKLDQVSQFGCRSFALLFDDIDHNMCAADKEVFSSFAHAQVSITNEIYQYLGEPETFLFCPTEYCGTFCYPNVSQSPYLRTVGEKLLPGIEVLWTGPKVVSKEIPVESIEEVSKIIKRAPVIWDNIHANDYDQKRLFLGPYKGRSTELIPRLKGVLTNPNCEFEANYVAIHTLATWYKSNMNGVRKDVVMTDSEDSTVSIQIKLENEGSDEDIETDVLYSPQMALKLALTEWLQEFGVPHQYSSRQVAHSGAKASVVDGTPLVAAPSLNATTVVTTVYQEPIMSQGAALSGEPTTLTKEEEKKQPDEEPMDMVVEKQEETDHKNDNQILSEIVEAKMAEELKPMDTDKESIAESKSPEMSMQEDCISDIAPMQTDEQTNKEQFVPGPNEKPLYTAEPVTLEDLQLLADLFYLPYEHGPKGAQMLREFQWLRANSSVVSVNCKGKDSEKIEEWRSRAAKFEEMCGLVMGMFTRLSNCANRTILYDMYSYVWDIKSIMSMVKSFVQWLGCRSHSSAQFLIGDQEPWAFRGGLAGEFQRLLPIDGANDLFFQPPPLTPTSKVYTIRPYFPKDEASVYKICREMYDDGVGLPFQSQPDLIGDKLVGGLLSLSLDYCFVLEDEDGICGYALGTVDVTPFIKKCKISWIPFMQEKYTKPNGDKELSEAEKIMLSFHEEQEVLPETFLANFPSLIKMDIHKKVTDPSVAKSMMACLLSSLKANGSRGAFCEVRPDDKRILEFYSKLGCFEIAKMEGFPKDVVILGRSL

[25] = species: Homo sapiens; assay: Selectivity for human O-GlcNAcase over human lysosomal beta-hexosaminidase

CCNC1=N[C@@H]2[C@@H](O)[C@H](O)[C@@H](CO)O[C@@H]2S1
inhibition [1]: inactive
inhibition [2]: inactive
inhibition [3]: inactive
Ki [4]: 750000 nM
Activity [5]: Active
inhibition [6]: inactive
inhibition [7]: inactive
Activity [8]: Dose-dependent effect
EC50 [9]: 30 nM
Activity [10]: tde
Activity [11]: tde
inhibition [12]: inactive
Activity [13]: Dose-dependent effect
Activity [14]: Active
Activity [15]: tde
Activity [16]: Active
Activity [17]: Active
Activity [18]: Active
Activity [19]: Active
Activity [20]: Active
Activity [21]: Active
Activity [22]: Active
Activity [23]: Active

CC(=O)N[C@H]1c2nc(CC(=O)O)cn2[C@H](CO)[C@@H](O)[C@@H]1O
Ki [24]: 420 nM

CCCC1=N[C@@H]2[C@@H](O)[C@H](O)[C@@H](CO)O[C@@H]2S1
fold change (FC) [25]: 800
Ki [24]: 600 nM

Reference: ChEMBL document CHEMBL1212706, “A potent mechanism-inspired O-GlcNAcase inhibitor that blocks phosphorylation of tau in vivo” (Nat Chem Biol, 2008)
